One experiment concerns the target Fms kinase (Homo sapiens, UniProt P07333). The experiment in a line: Fms kinase biochemical activity assay (AlphaScreen, biotin-(E4Y)10 phosphorylation). The settings on record: 100 μM ATP; read-out: Biochemical Inhibition IC50 Fms. The method in brief: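 AlphaScreen read-out (PY20 acceptor, streptavidin donor beads, EDTA stop) of biotin-(E4Y)10 phosphorylation, with IC50 taken from the concentration–signal curve. Reaction: 30 nM substrate, 100 μM ATP, 1 ng/well Fms, Hepes pH 7.5 with Mg2+/Mn2+, 5% DMSO, 20 min at 30 °C.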
Background: Bead proximity is the source of the signal in Alpha formats.

In a further experiment the target is T1, BCR-FMS BaF3 cells (Homo sapiens, UniProt P07333).
T1 construct: fused on or other part: P11274 (Breakpoint cluster region protein)
T1 sequence (P07333 582-910): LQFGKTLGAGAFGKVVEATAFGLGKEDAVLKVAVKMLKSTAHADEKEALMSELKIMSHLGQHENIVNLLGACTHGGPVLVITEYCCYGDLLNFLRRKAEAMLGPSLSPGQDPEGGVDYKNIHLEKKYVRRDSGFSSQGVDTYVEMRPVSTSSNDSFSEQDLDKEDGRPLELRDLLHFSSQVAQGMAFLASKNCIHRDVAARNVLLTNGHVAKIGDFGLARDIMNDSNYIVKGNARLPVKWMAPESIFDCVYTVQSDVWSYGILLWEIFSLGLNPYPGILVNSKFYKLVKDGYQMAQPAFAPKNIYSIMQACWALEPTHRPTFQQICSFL
The experiment in a line: BaF3 BCR-FMS cell proliferation assay (ATPlite). It counts as cell-based. The following applies: read-out: Inhibition of Cell Proliferation IC50, BCR/BaF3 Fms. The method in brief: (§1)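 Cells are plated overnight: BaF3 at 10,000/well in G418 medium without WEHI/IL-3, MV-4-11 at 25,000/well in IMDM with 10% FBS. An 8-point 1:3 compound titration (10 μM top) is then added, and plates are incubated 3 days at 37 °C before ATPlite readout and IC50 determination.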

In a further experiment the target is T2, BCR-KIT BaF3 cells (Homo sapiens, UniProt P10721).
T2 construct: fused on or other part: P11274 (Breakpoint cluster region protein)
Put plainly: BaF3 BCR-KIT cell proliferation assay (ATPlite). The format is cell-based. The following applies: read-out: Inhibition of Cell Proliferation IC50, BCR/BaF3 Kit. Put shortly: as §1
(In general: Cellular ATP, detected with luciferase, serves as a proxy for viable cell number.)

Fms kinase, sequence (P07333 20-972): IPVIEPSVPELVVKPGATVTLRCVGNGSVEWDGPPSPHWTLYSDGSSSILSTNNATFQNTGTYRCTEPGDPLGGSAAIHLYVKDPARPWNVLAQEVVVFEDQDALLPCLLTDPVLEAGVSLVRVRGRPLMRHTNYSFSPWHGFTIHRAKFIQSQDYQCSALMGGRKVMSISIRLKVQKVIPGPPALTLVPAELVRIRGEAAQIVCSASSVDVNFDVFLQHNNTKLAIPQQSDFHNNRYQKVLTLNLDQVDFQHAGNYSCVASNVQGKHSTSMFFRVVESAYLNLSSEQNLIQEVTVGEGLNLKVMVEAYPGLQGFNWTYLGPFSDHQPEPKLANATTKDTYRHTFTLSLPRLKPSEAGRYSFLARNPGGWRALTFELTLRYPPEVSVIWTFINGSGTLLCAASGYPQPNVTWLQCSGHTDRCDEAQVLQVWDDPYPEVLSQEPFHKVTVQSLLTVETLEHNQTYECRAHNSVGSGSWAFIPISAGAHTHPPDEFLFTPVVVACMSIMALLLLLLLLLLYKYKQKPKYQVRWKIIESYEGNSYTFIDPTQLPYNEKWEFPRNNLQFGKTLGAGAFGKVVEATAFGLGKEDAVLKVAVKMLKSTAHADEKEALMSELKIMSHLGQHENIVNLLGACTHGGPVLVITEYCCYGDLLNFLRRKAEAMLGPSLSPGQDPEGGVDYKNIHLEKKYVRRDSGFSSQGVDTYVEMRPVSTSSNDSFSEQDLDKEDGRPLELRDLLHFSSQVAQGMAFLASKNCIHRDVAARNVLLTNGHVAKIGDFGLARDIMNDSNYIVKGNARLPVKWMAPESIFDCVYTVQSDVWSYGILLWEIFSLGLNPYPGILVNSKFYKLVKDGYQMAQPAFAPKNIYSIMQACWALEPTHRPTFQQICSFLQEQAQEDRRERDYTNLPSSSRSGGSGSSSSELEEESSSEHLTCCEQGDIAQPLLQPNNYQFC
T2 sequence (P10721 589-937): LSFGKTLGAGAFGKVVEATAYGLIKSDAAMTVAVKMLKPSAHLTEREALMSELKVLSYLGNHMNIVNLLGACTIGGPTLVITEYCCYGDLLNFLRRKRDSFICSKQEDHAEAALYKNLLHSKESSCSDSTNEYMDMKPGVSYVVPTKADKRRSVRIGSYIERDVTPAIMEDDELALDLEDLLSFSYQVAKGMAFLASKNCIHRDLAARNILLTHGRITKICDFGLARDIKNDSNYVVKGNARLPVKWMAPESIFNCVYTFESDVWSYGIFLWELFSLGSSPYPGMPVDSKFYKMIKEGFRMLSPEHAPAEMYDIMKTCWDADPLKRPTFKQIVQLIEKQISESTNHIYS

For the molecule `CCc1ccc(Nc2ccc(Cc3c[nH]c4ncnc(C)c34)c(F)n2)cn1` [Compound P-4009, (6-Ethyl-pyridin-3-yl)-[6-fluoro-5-(4-methyl-7H-pyrrolo[2,3-d]pyrimidin-5-ylmethyl)-pyridin-2-yl]-amine], the IC50 is less than 10 nM on Fms kinase, less than 10 nM on BCR-FMS BaF3 cells and less than 1000 nM at BCR-KIT BaF3 cells.
For the molecule `COc1ccc(Nc2ccc(Cc3c[nH]c4ncnc(C5CC5)c34)c(F)n2)cn1` [Compound P-4023, [5-(4-cyclopropyl-7H-pyrrolo[2,3-d]pyrimidin-5-ylmethyl)-6-fluoro-pyridin-2-yl]-(6-methoxy-pyridin-3-yl)-amine], the IC50 is less than 10 nM on Fms kinase, less than 10 nM on BCR-FMS BaF3 cells and less than 1000 nM on BCR-KIT BaF3 cells.
`CCn1cc(Nc2ccc(Cc3c[nH]c4ncnc(C5CC5)c34)c(F)n2)cn1` [Compound P-4036, [5-(4-Cyclopropyl-7H-pyrrolo[2,3-d]pyrimidin-5-ylmethyl)-6-fluoro-pyridin-2-yl]-(1-ethyl-1H-pyrazol-4-yl)-amine]: the IC50 at Fms kinase was less than 10 nM; at BCR-FMS BaF3 cells, less than 100 nM; on BCR-KIT BaF3 cells it was less than 1000 nM.
In the same order, the values of `CCc1ccc(Nc2ccc(Cc3c[nH]c4ncc(C)cc34)c(F)n2)cn1` [Compound P-3048, (6-Ethyl-pyridin-3-yl)-[6-fluoro-5-(5-methyl-1H-pyrrolo[2,3-b]pyridin-3-ylmethyl)-pyridin-2-yl]-amine] are less than 10 nM, less than 10 nM and less than 100 nM.
Regarding `COc1ccc(Nc2ccc(C(=O)c3c[nH]c4ncc(C)cc34)c(F)n2)cn1` [Compound P-3040, [2-Fluoro-6-(6-methoxy-pyridin-3-ylamino)-pyridin-3-yl]-(5-methyl-1H-pyrrolo[2,3-b]pyridin-3-yl)-methanone], the IC50 on Fms kinase was less than 100 nM; at BCR-FMS BaF3 cells, less than 100 nM; on BCR-KIT BaF3 cells, greater than 1000 nM.
As for `CCOc1ccc(Nc2ccc(Cc3c[nH]c4ncc(C)cc34)c(F)n2)cn1` [Compound P-3039, (6-ethoxy-pyridin-3-yl)-[6-fluoro-5-(5-methyl-1H-pyrrolo[2,3-b]pyridin-3-ylmethyl)-pyridin-2-yl]-amine], the IC50 on Fms kinase was less than 10 nM; at BCR-FMS BaF3 cells, less than 10 nM; on BCR-KIT BaF3 cells, less than 1000 nM.
With `CCn1cc(Nc2ncc(Cc3c[nH]c4ncc(C)cc34)cn2)cn1` [Compound P-3036, (1-Ethyl-1H-pyrazol-4-yl)-[5-(5-methyl-1H-pyrrolo[2,3-b]pyridin-3-ylmethyl)-pyrimidin-2-yl]-amine], the IC50 at Fms kinase was less than 10 nM; on BCR-FMS BaF3 cells, less than 10 nM; at BCR-KIT BaF3 cells, less than 100 nM.
Consider `CCc1ccc(Nc2ccc(C(=O)c3c[nH]c4ncc(C)cc34)c(F)n2)cn1` [Compound P-3049, [6-(6-Ethyl-pyridin-3-ylamino)-2-fluoro-pyridin-3-yl]-(5-methyl-1H-pyrrolo[2,3-b]pyridin-3-yl)-methanone], for which the IC50 is less than 10 nM on Fms kinase, less than 10 nM at BCR-FMS BaF3 cells and less than 100 nM on BCR-KIT BaF3 cells.
In the case of `CCOc1ccc(Nc2ncc(Cc3c[nH]c4ncc(C)cc34)cn2)cc1` [Compound P-3026, (4-Ethoxy-phenyl)-[5-(5-methyl-1H-pyrrolo[2,3-b]pyridin-3-ylmethyl)-pyrimidin-2-yl]-amine], the IC50 on Fms kinase is less than 10 nM; at BCR-FMS BaF3 cells it was less than 10 nM; at BCR-KIT BaF3 cells it was less than 100 nM.
For the molecule `Cc1cncc(Nc2ccc(C(=O)c3c[nH]c4ncnc(C5CC5)c34)c(F)n2)c1` [Compound P-4039, (4-Cyclopropyl-7H-pyrrolo[2,3-d]pyrimidin-5-yl)-[2-fluoro-6-(5-methyl-pyridin-3-ylamino)-pyridin-3-yl]-methanone], the IC50 on Fms kinase is less than 1000 nM; on BCR-FMS BaF3 cells, less than 100 nM; on BCR-KIT BaF3 cells, less than 1000 nM.
Take `Cc1cnc2[nH]cc(Cc3ccc(Nc4ccc(C5CC5)nc4)nc3F)c2c1` [Compound P-3050, (6-Cyclopropyl-pyridin-3-yl)-[6-fluoro-5-(5-methyl-1H-pyrrolo[2,3-b]pyridin-3-ylmethyl)-pyridin-2-yl]-amine]: the IC50 at Fms kinase is less than 100 nM; at BCR-FMS BaF3 cells it was less than 100 nM; at BCR-KIT BaF3 cells, less than 1000 nM.
For `COc1cc(Nc2ncc(Cc3c[nH]c4ncc(C)cc34)cn2)ccc1F` [Compound P-3022, (4-Fluoro-3-methoxy-phenyl)-[5-(5-methyl-1H-pyrrolo[2,3-b]pyridin-3-ylmethyl)-pyrimidin-2-yl]-amine], the IC50 on Fms kinase, on BCR-FMS BaF3 cells and on BCR-KIT BaF3 cells was less than 100 nM in each case.
For `FC1(F)CCC(Nc2ncc(Cc3c[nH]c4ncc(Cl)cc34)cn2)CC1` [Compound P-3004], the IC50 on Fms kinase is less than 10 nM; on BCR-FMS BaF3 cells, less than 100 nM; on BCR-KIT BaF3 cells it was greater than 1000 nM.
In the same order, the values of `Cc1cnc2[nH]cc(Cc3cnc(Nc4cc(-c5ccc(F)cc5)n[nH]4)nc3)c2c1` [Compound P-3028, [5-(4-Fluoro-phenyl)-2H-pyrazol-3-yl]-[5-(5-methyl-1H-pyrrolo[2,3-b]pyridin-3-ylmethyl)-pyrimidin-2-yl]-amine] are greater than 1000 nM, less than 1000 nM and less than 100 nM.
As for `CCOc1ncnc2[nH]cc(Cc3ccc(Nc4ccc(OC)nc4)nc3F)c12` [Compound P-4018, [5-(4-Ethoxy-7H-pyrrolo[2,3-d]pyrimidin-5-ylmethyl)-6-fluoro-pyridin-2-yl]-(6-methoxy-pyridin-3-yl)-amine], the figures for the IC50 on Fms kinase, on BCR-FMS BaF3 cells and on BCR-KIT BaF3 cells were less than 10 nM, less than 10 nM and less than 1000 nM, respectively.
With `CCc1ccc(Nc2ccc(Cc3c[nH]c4ncnc(C5CC5)c34)c(F)n2)cn1` [Compound P-4028, [5-(4-Cyclopropyl-7H-pyrrolo[2,3-d]pyrimidin-5-ylmethyl)-6-fluoro-pyridin-2-yl]-(6-ethyl-pyridin-3-yl)-amine], the IC50 on Fms kinase is less than 10 nM; on BCR-FMS BaF3 cells it was less than 10 nM; at BCR-KIT BaF3 cells, less than 1000 nM.
For `CCn1cc(Nc2ccc(C(=O)c3c[nH]c4ncnc(C5CC5)c34)c(F)n2)cn1` [Compound P-4037, (4-Cyclopropyl-7H-pyrrolo[2,3-d]pyrimidin-5-yl)-[6-(1-ethyl-1H-pyrazol-4-ylamino)-2-fluoro-pyridin-3-yl]-methanone], the IC50 on Fms kinase, on BCR-FMS BaF3 cells and at BCR-KIT BaF3 cells was less than 100 nM in each case.
As to `Cc1ccc(Nc2ccc(C(=O)c3c[nH]c4ncnc(C5CC5)c34)c(F)n2)cn1` [Compound P-4031, (4-Cyclopropyl-7H-pyrrolo[2,3-d]pyrimidin-5-yl)-[2-fluoro-6-(6-methyl-pyridin-3-ylamino)-pyridin-3-yl]-methanone], the IC50 at Fms kinase is less than 100 nM; at BCR-FMS BaF3 cells, less than 100 nM; on BCR-KIT BaF3 cells, less than 1000 nM.
With `Clc1cnc2[nH]cc(Cc3cnc(NC4CCCC4)nc3)c2c1` [Compound P-3003, [5-(5-Chloro-1H-pyrrolo[2,3-b]pyridin-3-ylmethyl)-pyrimidin-2-yl]-cyclopentyl-amine], the IC50 on Fms kinase was less than 1000 nM; at BCR-FMS BaF3 cells it was less than 1000 nM; on BCR-KIT BaF3 cells, greater than 1000 nM.
For the molecule `Fc1cccc(Nc2ncc(Cc3c[nH]c4ncc(Cl)cc34)cn2)c1` [Compound P-3017, [5-(5-Chloro-1H-pyrrolo[2,3-b]pyridin-3-ylmethyl)-pyrimidin-2-yl]-(3-fluoro-phenyl)-amine], the IC50 is less than 100 nM at Fms kinase, less than 1000 nM at BCR-FMS BaF3 cells and greater than 1000 nM on BCR-KIT BaF3 cells.
For the molecule `Clc1cnc2[nH]cc(Cc3cnc(NC4CCCCCC4)nc3)c2c1` [Compound P-3006, [5-(5-Chloro-1H-pyrrolo[2,3-b]pyridin-3-ylmethyl)-pyrimidin-2-yl]-cycloheptyl-amine], the IC50 on Fms kinase is less than 10 nM; on BCR-FMS BaF3 cells, less than 1000 nM; on BCR-KIT BaF3 cells it was greater than 1000 nM.
In the same order, the values of `Cc1cnc2[nH]cc(Cc3cnc(Nc4ccc(C(C)(C)C)cc4)nc3)c2c1` [Compound P-3030, (4-tert-Butyl-phenyl)-[5-(5-methyl-1H-pyrrolo[2,3-b]pyridin-3-ylmethyl)-pyrimidin-2-yl]-amine amine] are less than 100 nM, less than 10 nM and less than 10 nM.
In the same order, the values of `Clc1cnc2[nH]cc(Cc3cnc(NC4CCCCC4)nc3)c2c1` [Compound P-3001, [5-(5-chloro-1H-pyrrolo[2,3-b]pyridin-3-ylmethyl)-pyrimidin-2-yl]-cyclohexyl-amine] are less than 100 nM, less than 100 nM and greater than 1000 nM.
`Cc1cnc2[nH]cc(C(=O)c3ccc(Nc4ccc(C5CC5)nc4)nc3F)c2c1` [Compound P-3051, [6-(6-Cyclopropyl-pyridin-3-ylamino)-2-fluoro-pyridin-3-yl]-(5-methyl-1H-pyrrolo[2,3-b]pyridin-3-yl)-methanone]: the results for the IC50 at Fms kinase, on BCR-FMS BaF3 cells and on BCR-KIT BaF3 cells were less than 10 nM, less than 100 nM and less than 1000 nM, respectively.

(Values after US8901118B2, “Compounds and methods for kinase modulation, and indications therefor” (Plexxikon Inc., priority 2010, dated 2014).)
